Measured values taken from the supplement of paper PMC8920030.

Tests used:
Settings in all cases: growth mode: biofilm, 24 h; exposure time: 24 h
colistin [1] = compound: T1, CCC(C)CCCC(=O)N[C@@H](CCN)C(=O)N[C@H](C(=O)N[C@@H](CCN)C(=O)N[C@H]1CCNC(=O)[C@H]([C@@H](C)O)NC(=O)[C@H](CCN)NC(=O)[C@H](CCN)NC(=O)[C@H](CC(C)C)NC(=O)[C@@H](CC(C)C)NC(=O)[C@H](CCN)NC1=O)[C@@H](C)O [colistin]; test: minimum concentration of killing, 1-log CFU reduction of biofilm (MCK90); higher = more biofilm tolerance
Experimental: (§1)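 Clinical P. aeruginosa isolates were grown as static biofilms for 24 h at 37 °C in LB in half-area 96-well plates, then exposed for 24 h to colistin at 1, 4, 16, 64, 256 or […]. Surviving CFU were counted by spotting serial dilutions. MCK is the lowest tested concentration giving the stated log reduction in CFU versus an untreated control; '>1024' means the reduction was not reached at the top dose, and 1 is the lowest dose tested (≤1).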

colistin [2] = compound: T1, colistin; test: minimum concentration of killing, 4-log CFU reduction of biofilm (MCK99.99); higher = more biofilm tolerance
Experimental: as §1

tobramycin [3] = compound: T2, NC[C@H]1O[C@H](O[C@H]2[C@H](O)[C@@H](O[C@H]3O[C@H](CO)[C@@H](O)[C@H](N)[C@H]3O)[C@H](N)C[C@@H]2N)[C@H](N)C[C@@H]1O [tobramycin]; test: minimum concentration of killing, 2-log CFU reduction of biofilm (MCK99); higher = more biofilm tolerance
Experimental: (§2)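 Clinical P. aeruginosa isolates were grown as static biofilms for 24 h at 37 °C in LB in half-area 96-well plates, then exposed for 24 h to tobramycin at 1, 4, 16, 64, 256 or […]. Surviving CFU were counted by spotting serial dilutions. MCK is the lowest tested concentration giving the stated log reduction in CFU versus an untreated control; '>1024' means the reduction was not reached at the top dose, and 1 is the lowest dose tested (≤1).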

colistin [4] = compound: T1, colistin; test: minimum concentration eradicating biofilm below detection limit (MCK-E); higher = more biofilm tolerance
Experimental: as §1

tobramycin [5] = compound: T2, tobramycin; test: as above
Experimental: as §2

colistin [6] = compound: T1, colistin; test: minimum concentration of killing, 2-log CFU reduction of biofilm (MCK99); higher = more biofilm tolerance
Experimental: as §1

tobramycin [7] = compound: T2, tobramycin; test: minimum concentration of killing, 4-log CFU reduction of biofilm (MCK99.99); higher = more biofilm tolerance
Experimental: as §2

tobramycin [8] = compound: T2, tobramycin; test: minimum concentration of killing, 1-log CFU reduction of biofilm (MCK90); higher = more biofilm tolerance
Experimental: as §2

| Test System | minimum concentration of killing (colistin [1]) [µg/mL] | minimum concentration of killing (colistin [2]) [µg/mL] | minimum concentration of killing (tobramycin [3]) [µg/mL] | minimum concentration eradicating biofilm below detection limit (colistin [4]) [µg/mL] | minimum concentration eradicating biofilm below detection limit (tobramycin [5]) [µg/mL] | minimum concentration of killing (colistin [6]) [µg/mL] | minimum concentration of killing (tobramycin [7]) [µg/mL] | minimum concentration of killing (tobramycin [8]) [µg/mL] |
| --- | --- | --- | --- | --- | --- | --- | --- | --- |
| Pseudomonas aeruginosa clinical isolate F1959 | 64 | 64 | 64 | 64 | > 1020 | 64 | 1020 | 16 |
| Pseudomonas aeruginosa clinical isolate ESP088 | 64 | 256 | 1020 | 256 | > 1020 | 64 | > 1020 | 256 |
| Pseudomonas aeruginosa clinical isolate ESP011 | 16 | 64 | 256 | 64 | 1020 | 16 | 1020 | 16 |
| Pseudomonas aeruginosa clinical isolate F2010 | 64 | 256 | 64 | 1020 | 1020 | 256 | 256 | 64 |
| Pseudomonas aeruginosa clinical isolate F1757 | 64 | 64 | 64 | 256 | > 1020 | 64 | > 1020 | ≤ 1 |
| Pseudomonas aeruginosa clinical isolate F1800 | 16 | 1020 | ≤ 1 | 1020 | 1020 | 256 | 256 | ≤ 1 |
| Pseudomonas aeruginosa clinical isolate ESP044 | 64 | 256 | 64 | 256 | 256 | 64 | 256 | 4 |
| Pseudomonas aeruginosa clinical isolate ESP036 | 256 | 256 | 4 | 256 | 64 | 256 | 16 | ≤ 1 |
| Pseudomonas aeruginosa clinical isolate ESP009 | 64 | 64 | 16 | 64 | 1020 | 64 | 256 | 16 |
| Pseudomonas aeruginosa clinical isolate ESP075 | 256 | 256 | 4 | 256 | 256 | 256 | 64 | ≤ 1 |
| Pseudomonas aeruginosa clinical isolate CH2672 | 256 | 256 | 64 | 256 | > 1020 | 256 | 256 | 16 |
| Pseudomonas aeruginosa clinical isolate ESP029 | 256 | 256 | 4 | 256 | 256 | 256 | 256 | 4 |
| Pseudomonas aeruginosa clinical isolate ESP091 | 256 | 256 | 64 | 256 | 1020 | 256 | 1020 | 64 |
| Pseudomonas aeruginosa clinical isolate F1864 | 256 | 256 | 1020 | 1020 | > 1020 | 256 | 1020 | 1020 |
